Data taken from patent publication US6022495A, “Photochromic benzopyrano-fused naphthopyrans” (Transitions Optical, Inc., priority 1998, dated 2000).

Tests used:
[1] = Visible lambda max of the activated form in polymer test squares (Varian Cary 3 UV-Visible spectrophotometer); format: physicochemical; details: activated (colored) form in test square of BPA 2EO DMA / poly(ethylene glycol) 600 dimethacrylate, 1.5×10^-3 molal
Method: (§1) Testing was done with the photochromic compounds prepared in Examples 1-11 in the following manner. A quantity of each photochromic compound calculated to yield a 1.5×10^-3 molal solution was added to a flask containing 50 grams of a monomer blend of 4 parts ethoxylated bisphenol A dimethacrylate (BPA 2EO DMA), 1 part poly(ethylene glycol) 600 dimethacrylate, and 0.033 weight percent 2,2'-azobis(2-methyl propionitrile) (AIBN). Each photochromic compound was dissolved into the monomer blend by stirring and gentle heating. After a clear solution was obtained, it was poured into a flat sheet mold having the interior dimensions of 2.2 mm×6 inches (15.24 cm)×6 inches (15.24 cm). The mold was sealed and placed in a horizontal air flow, programmable oven programmed to increase the temperature from 40° C. to 95° C. over […], hold the temperature at 95° C. for 3 hours, lower it to 60° C. over a 2 hour interval and then hold at 60° C. for 16 hours. After the mold was opened, the polymer sheet was cut using a diamond blade saw into 2 inch (5.1 centimeters) test squares.
The Δ OD/min, which represents the sensitivity of the photochromic compound's response to UV light, was measured over the first five (5) seconds of UV exposure, then expressed on a per minute basis. The saturation optical density (Δ OD@ Saturation) was taken under identical conditions as the Δ OD/min, except UV exposure was continued for 15 minutes. The lambda max (Vis) is the wavelength in nanometers (nm) in the visible spectrum at which the maximum absorption of the activated (colored) form of the photochromic compound in a test square occurs. The lambda max (Vis) wavelength was determined by testing the photochromic test square polymerizates of Part A in a Varian Cary 3 UV-Visible spectrophotometer. The Bleach Rate (T 1/2) is the time interval in seconds for the absorbance of the activated form of the photochromic compound in the test squares to reach one half the highest absorbance at room temperature (72° F., 22.20C.) after removal of the source of activating light.

[2] = Photochromic response of polymer test squares on an optical bench; format: physicochemical; details: for ΔOD @ Saturation: UV exposure continued for 15 minutes; for ΔOD @ Saturation / Sensitivity ΔOD/min: 72° F. (22.2° C.); for Sensitivity ΔOD/min: first five (5) seconds of UV exposure, expressed per minute; for Bleach Rate T 1/2: time for absorbance of activated form to reach one half the highest absorbance at room temperature (72° F.) after removal of activating light
Method: as §1
The photochromic test squares prepared in Part A were tested for photochromic response on an optical bench. Prior to testing on the optical bench, the photochromic test squares were exposed to 365 nanometer ultraviolet light for about 15 minutes to activate the photochromic compounds and then placed in a 76° C. oven for about 15 minutes to bleach or inactivate the photochromic compounds. The test squares were then cooled to room temperature, exposed to fluorescent room lighting for at least 2 hours and then kept covered for at least 2 hours prior to testing on an optical bench maintained at 72° F. (22.2° C.). The bench was fitted with a 150 watt Xenon arc lamp, a remote controlled shutter, a copper sulfate bath acting as a heat sink for the arc lamp, a Schott WG-320 nm cut-off filter which removes short wavelength radiation; neutral density filter(s) and a sample holder in which the square to be tested was inserted. The power output of the optical bench, i.e., the dosage of light that the sample lens would be exposed to, was calibrated with a photochromic test square used as a reference standard. […] The UV-A detector was placed into the sample holder and the light output was measured. Adjustments to the power output were made by increasing or decreasing the lamp wattage or by adding or removing neutral density filters in the light path.
A monitoring, collimated beam of light from a tungsten lamp was passed through the square at a small angle (approximately […]) normal to the square. After passing through the square, the light from the tungsten lamp was directed to a detector through Spectral Energy Corp. GM-200 monochromator set at the previously determined visible lambda max of the photochromic compound being measured. The output signals from the detector were processed by a radiometer.
Change in optical density (ΔOD) was determined by inserting a test square in the bleached state into the sample holder, adjusting the transmittance scale to 100%, opening the shutter from the Xenon lamp to provide ultraviolet radiation to change the test square from the bleached state to an activated (i.e., darkened) state, measuring the transmittance in the activated state, and calculating the change in optical density according to the formula: ΔOD=log(100/% Ta), where % Ta is the percent transmittance in the activated state and the logarithm is to the base 10.
The Δ OD/min, which represents the sensitivity of the photochromic compound's response to UV light, was measured over the first five (5) seconds of UV exposure, then expressed on a per minute basis. The saturation optical density (Δ OD@ Saturation) was taken under identical conditions as the Δ OD/min, except UV exposure was continued for 15 minutes. […]

Row | lambda max (Vis) [1] | ΔOD @ Saturation [2] | Sensitivity ΔOD/min [2] | Bleach Rate T 1/2 [2] | Structure (SMILES) | also measured
1 | 602 nanometers | 0.21 | 0.08 ΔOD/min | 216 s | COc1ccc(C2(c3ccccc3)C=Cc3c4c(c5ccccc5c3O2)-c2cc(OC)c(OC)cc2C(C)(C)O4)cc1 (centres unmarked) [Compound 8, 6-(4-methoxyphenyl)-6-phenyl-12,13-dimethoxy-10,10-dimethyl-6,10-dihydro[2]benzopyrano [3',4':3,4]naphtho(1,2-b)pyran] | –
2 | 537 nanometers | 0.07 | 0.19 ΔOD/min | 24 s | COc1ccc(C2(c3ccc(OC)cc3)C=Cc3c(c4ccccc4c4c3oc(=O)c3ccccc34)O2)cc1 [Compound 1B, 6,6-bis(4-methoxyphenyl)-10-oxo-6,10-dihydro[2]benzopyrano[3',4':3,4]naphtho(1,2-b)pyran] | –
3 | 598 nanometers | 0.06 | 0.13 ΔOD/min | 39 s | COc1ccc(C2(c3ccc(N4CCOCC4)cc3)C=Cc3c(c4ccccc4c4c3oc(=O)c3ccccc34)O2)cc1 (centres unmarked) [Compound 3B, 6-(4-methoxyphenyl)-6-(4-morpholinophenyl)-10-oxo-6,10-dihydro[2]benzopyrano[3',4':3,4]naphtho(1,2-b)pyran] | –
4 | 493 nanometers | 0.14 | 0.29 ΔOD/min | 18 s | COc1ccc(C2(c3ccc(OC)cc3)C=Cc3c(c4c5ccccc5c(=O)oc4c4ccccc34)O2)cc1 [Compound 1A, 2,2-bis(4-methoxyphenyl)-10-oxo-2,10-dihydro[2]benzopyrano[4',3':3,4]naphtho(2,1-b)pyran] | –
5 | 478 nanometers | 0.12 | 0.25 ΔOD/min | 24 s | COc1ccc(C2(c3ccc(OC)cc3)C=Cc3c(c4c5ccc(OC)cc5c(=O)oc4c4ccccc34)O2)cc1 [Compound 9A, 2,2-bis(4-methoxyphenyl)-12-methoxy-10-oxo-2,10-dihydro[2]benzopyrano[4',3':3,4]naphtho(2,1-b)pyran] | –

Second part, the molecule before the results:

Row | Structure (SMILES) | lambda max (Vis) [1] | ΔOD @ Saturation [2] | Sensitivity ΔOD/min [2] | Bleach Rate T 1/2 [2] | also measured
6 | COc1ccc(C2(c3ccc(OC)cc3)C=Cc3c4c(c5ccccc5c3O2)-c2ccccc2CO4)cc1 [Compound 2, 6,6-bis(4-methoxyphenyl)-6,10-dihydro[2]benzopyrano[3'4':3,4]naphtho(1,2-b)pyran] | – | – | – | – | lambda max (Vis) ([1]; listed as 2A): 546 nanometers; lambda max (Vis) ([1]; listed as 2B): 432 nanometers; ΔOD @ Saturation ([2]; listed as 2A): 0.22; ΔOD @ Saturation ([2]; listed as 2B): 0.27; Sensitivity ΔOD/min ([2]; listed as 2A): 0.10 ΔOD/min; Sensitivity ΔOD/min ([2]; listed as 2B): 0.12 ΔOD/min; Bleach Rate T 1/2 ([2]; listed as 2A): 116 s; Bleach Rate T 1/2 ([2]; listed as 2B): 112 s
7 | COc1ccc(C2(c3ccc(N4CCOCC4)cc3)C=Cc3c(c4c5ccccc5c(=O)oc4c4ccccc34)O2)cc1 (centres unmarked) [Compound 3A, 2-(4-methoxyphenyl)-2-(4-morpholinophenyl)-10-oxo-2,10-dihydro[2]benzopyrano[4',3':3,4]naphtho(2,1-b)pyran] | 530 nanometers | 0.01 | 0.04 ΔOD/min | 3 s | –
8 | O=c1oc2c3ccc4c(c3ccc2c2ccccc12)C=CC(c1ccccc1)(c1ccccc1)O4 [Compound 11, 3,3-diphenyl-8-oxo-3,8-dihydro[2]benzopyrano[3',4':5,6]naphtho(2,1-b)pyran] | 466 nanometers | 0.02 | 0.12 ΔOD/min | – | –
9 | COc1ccc(C2(c3ccccc3)C=Cc3c(c4ccccc4c4c3oc(=O)c3cc(OC)c(OC)cc34)O2)cc1 (centres unmarked) [Compound 7A, 6-(4-methoxyphenyl)-6-phenyl-12,13-dimethoxy-10-oxo-6,10-dihydro[2]benzopyrano[3',4':3,4]naphtho(1,2-b)pyran] | 569 nanometers | 0.22 | 0.27 ΔOD/min | 54 s | –
10 | O=c1oc2ccccc2c2c1c1c(c3ccccc32)OC(c2ccccc2)(c2ccccc2)C=C1 [Compound 10, 6,6-diphenyl-9-oxo-6,9-dihydro[1]benzopyrano[3',4':3,4]naphtho(1,2-b)pyran] | 484 nanometers | 0.26 | 0.69 ΔOD/min | 19 s | –
11 | O=c1oc2c3ccccc3c3c(c2c2ccccc12)OC(c1ccccc1)(c1ccc(N2CCOCC2)cc1)C=C3 (centres unmarked) [Compound 5A, 2-(4-morpholinophenyl)-2-phenyl-10-oxo-2,10-dihydro[2]benzopyrano[4',3':3,4]naphtho(2,1-b)pyran] | 570 nanometers | 0.12 | 0.21 ΔOD/min | 37 s | –
12 | COc1ccc(C2(c3ccc(N4CCOCC4)cc3)C=Cc3c4c(c5ccccc5c3O2)-c2ccccc2C(C)(C)O4)cc1 (centres unmarked) [Compound 4, 10,10-dimethyl-6-(4-methoxyphenyl)-6-(4-morpholinophenyl)-6,10-dihydro[2]benzopyrano[3',4':3,4]naphtho(1,2-b)pyran] | – | – | – | – | lambda max (Vis) ([1]; listed as 4A): 598 nanometers; lambda max (Vis) ([1]; listed as 4B): 472 nanometers; ΔOD @ Saturation ([2]; listed as 4A): 0.23; ΔOD @ Saturation ([2]; listed as 4B): 0.19; Sensitivity ΔOD/min ([2]; listed as 4A): 0.18 ΔOD/min; Sensitivity ΔOD/min ([2]; listed as 4B): 0.12 ΔOD/min; Bleach Rate T 1/2 ([2]; listed as 4A): 68 s; Bleach Rate T 1/2 ([2]; listed as 4B): 61 s
13 | COc1ccc(C2(c3ccc(OC)cc3)C=Cc3c(c4c5cc(OC)c(OC)cc5c(=O)oc4c4ccccc34)O2)cc1 [Compound 6A, 2,2-bis(4-methoxyphenyl)-12,13-dimethoxy-10-oxo-2,10-dihydro[2]benzopyrano[4',3':3,4]naphtho(2,1-b)pyran] | 477 nanometers | 0.13 | 0.19 ΔOD/min | 28 s | –
